Read-outs that look alike come from different tables or passages of the source.
What was measured:
[1] = biological target: T1, Drosophila OR13a (Drosophila melanogaster, UniProt Q9VXL0); experiment: Calcium ion fluorescence (GCaMP6) assay, OR13a stable HEK293 cell line; format: cell-based; conditions: for activation at 1 µM: HEK293, read-out: OR13a Average response (VUAA1-normalized), 1 μM VOC; for activation at 1 µM / activation at 10 µM / activation at 100 µM: 50 μM VUAA1 = 1, responses not exceeding 0.05 considered 0; for activation at 10 µM: HEK293, read-out: OR13a Average response (VUAA1-normalized), 10 μM VOC; for activation at 100 µM: HEK293, read-out: OR13a Average response (VUAA1-normalized), 100 μM VOC; for OR13a response (VUAA1-normalized) at 1 μM / OR13a response (VUAA1-normalized) at 10 μM / OR13a response (VUAA1-normalized) at 100 μM: OR13a cell line; for OR13a response (VUAA1-normalized) at 1 μM: VOC concentration 1 μM; for OR13a response (VUAA1-normalized) at 10 μM: VOC concentration 10 μM; for OR13a response (VUAA1-normalized) at 100 μM: VOC concentration 100 μM; for DF norm AVERAGE OR13a: threshold 0.05, below shown as 0
T1 construct: expressed in transfected cells
T1 sequence (Q9VXL0 1-418): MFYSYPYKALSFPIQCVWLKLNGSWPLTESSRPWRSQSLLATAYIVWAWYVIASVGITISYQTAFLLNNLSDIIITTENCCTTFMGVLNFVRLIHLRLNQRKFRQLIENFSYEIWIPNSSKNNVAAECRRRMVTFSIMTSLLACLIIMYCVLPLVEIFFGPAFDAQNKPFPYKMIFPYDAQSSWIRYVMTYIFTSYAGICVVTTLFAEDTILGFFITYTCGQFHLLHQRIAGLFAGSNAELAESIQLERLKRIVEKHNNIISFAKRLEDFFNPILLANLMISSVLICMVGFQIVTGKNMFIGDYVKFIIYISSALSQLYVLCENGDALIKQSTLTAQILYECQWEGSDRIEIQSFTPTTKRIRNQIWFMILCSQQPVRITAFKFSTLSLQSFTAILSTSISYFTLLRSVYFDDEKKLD
T1 sequence (Q9VNB5 1-486 partner): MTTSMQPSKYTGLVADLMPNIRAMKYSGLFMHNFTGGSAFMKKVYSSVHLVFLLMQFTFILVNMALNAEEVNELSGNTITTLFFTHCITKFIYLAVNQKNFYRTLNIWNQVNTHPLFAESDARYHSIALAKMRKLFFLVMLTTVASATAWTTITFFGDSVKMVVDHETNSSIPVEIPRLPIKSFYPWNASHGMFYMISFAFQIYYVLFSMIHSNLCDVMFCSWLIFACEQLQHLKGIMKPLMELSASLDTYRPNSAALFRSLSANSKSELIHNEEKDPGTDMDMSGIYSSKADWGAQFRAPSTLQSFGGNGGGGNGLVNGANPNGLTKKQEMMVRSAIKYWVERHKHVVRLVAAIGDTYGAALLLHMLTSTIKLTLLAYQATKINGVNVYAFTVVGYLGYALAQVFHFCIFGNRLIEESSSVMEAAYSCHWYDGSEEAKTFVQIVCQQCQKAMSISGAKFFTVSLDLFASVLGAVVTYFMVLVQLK
Procedure, shortened: (§1)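 Responses are VUAA1-normalized ΔF: each VOC-evoked calcium signal, (FMAX−F0)/F0 over 30 s after injection, divided by the same line's mean 50 µM VUAA1 response. Cells were doxycycline-induced HEK293 with GCaMP6 and the cognate Drosophila OR, in HEPES buffer pH 7.3; ligands tested 0.01–100 μM.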

[2] = biological target: T2, Drosophila OR10a (Drosophila melanogaster, UniProt Q9VYZ1); experiment: Calcium ion fluorescence (GCaMP6) assay, OR10a stable HEK293 cell line; format: cell-based; conditions: for activation at 1 µM / activation at 10 µM / activation at 100 µM: 50 μM VUAA1 = 1, responses not exceeding 0.05 considered 0; for OR10a response (VUAA1-normalized) at 1 μM / OR10a response (VUAA1-normalized) at 10 μM / OR10a response (VUAA1-normalized) at 100 μM: OR10a cell line; for OR10a response (VUAA1-normalized) at 1 μM: VOC concentration 1 μM; for OR10a response (VUAA1-normalized) at 10 μM: VOC concentration 10 μM; for OR10a response (VUAA1-normalized) at 100 μM: VOC concentration 100 μM; for DF norm AVERAGE OR10a: threshold 0.05, below shown as 0
T2 construct: expressed in transfected cells
T2 sequence (Q9VYZ1 1-406): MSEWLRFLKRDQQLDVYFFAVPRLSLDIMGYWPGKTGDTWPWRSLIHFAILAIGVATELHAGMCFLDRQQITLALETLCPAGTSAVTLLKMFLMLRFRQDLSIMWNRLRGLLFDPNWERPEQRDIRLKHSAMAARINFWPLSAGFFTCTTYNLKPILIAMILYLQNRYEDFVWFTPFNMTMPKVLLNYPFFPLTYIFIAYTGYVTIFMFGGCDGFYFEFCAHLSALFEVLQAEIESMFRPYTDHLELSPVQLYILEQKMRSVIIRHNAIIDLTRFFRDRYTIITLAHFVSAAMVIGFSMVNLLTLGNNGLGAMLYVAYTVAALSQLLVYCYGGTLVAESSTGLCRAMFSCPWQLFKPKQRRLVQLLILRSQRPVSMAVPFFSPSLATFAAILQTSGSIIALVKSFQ
T2 sequence (Q9VNB5 1-486 partner): T1 sequence (Q9VNB5 1-486 partner)
Procedure, shortened: as §1

[3] = ligand concentration 1 (unit not given)
[4] = ligand concentration 10 (unit not given)
[5] = ligand concentration 100 (unit not given)
[6] = HEK293, read-out: OR10a Average response (VUAA1-normalized), 1 μM VOC
[7] = HEK293, read-out: OR10a Average response (VUAA1-normalized), 10 μM VOC
[8] = HEK293, read-out: OR10a Average response (VUAA1-normalized), 100 μM VOC
[9] = HEK293, 1 μM VOC, read-out: OR10a Average response (VUAA1-normalized)
[10] = HEK293, 10 μM VOC, read-out: OR10a Average response (VUAA1-normalized)
[11] = HEK293, 100 μM VOC, read-out: OR10a Average response (VUAA1-normalized)

| SMILES | activation at 1 µM [1] | activation at 10 µM [1] | activation at 100 µM [1] | OR13a response (VUAA1-normalized) at 1 μM [1] | OR13a response (VUAA1-normalized) at 10 μM [1] | OR13a response (VUAA1-normalized) at 100 μM [1] | DF norm AVERAGE OR13a [1, 3] | DF norm AVERAGE OR13a [1, 4] | DF norm AVERAGE OR13a [1, 5] | activation at 1 µM [2, 6] | activation at 10 µM [2, 7] | activation at 100 µM [2, 8] | OR10a response (VUAA1-normalized) at 1 μM [2] | OR10a response (VUAA1-normalized) at 10 μM [2] | OR10a response (VUAA1-normalized) at 100 μM [2] | DF norm AVERAGE OR10a [2, 3] | DF norm AVERAGE OR10a [2, 4] | DF norm AVERAGE OR10a [2, 5] | activation at 1 µM [2, 9] | activation at 10 µM [2, 10] | also measured |
| --- | --- | --- | --- | --- | --- | --- | --- | --- | --- | --- | --- | --- | --- | --- | --- | --- | --- | --- | --- | --- | --- |
| Cc1ccc(C(C)C)cc1 [p-cymene] | 0% | 0% | 0% | 0.00 | 0.00 | 0.00 | 0 | 0 | 0 | 0% | 0% | 0% | 0.00 | 0.00 | 0.00 | 0 | 0 | 0 | – | – | – |
| Cc1ccc(C)cc1 [p-xylene] | 0% | 0% | 2.5% | 0.00 | 0.00 | 0.00 | 0 | 0 | 0 | 0% | 0% | 6.41% | 0.00 | 0.00 | 0.0641 | 0 | 0 | 0.06412 | – | – | – |
| CCCCCOC(C)=O [pentyl acetate] | 4% | 0.671% | 4.32% | 0.00 | 0.00 | 0.00 | 0 | 0 | 0 | – | – | – | 0.11 | 0.08 | 0.30 | 0.109 | 0.07718 | 0.3011 | 11% | 8% | activation at 100 µM [2, 11]: 30% |
| OCCc1ccccc1 [phenethyl alcohol] | 6.58% | 6% | 3% | 0.0658 | 0.06 | 0.00 | 0.06578 | 0.05738 | 0 | – | – | – | 0.00 | 0.06 | 0.00 | 0 | 0.05732 | 0 | 3% | 6% | activation at 100 µM [2, 11]: 3% |
